Calls of active or inactive are those of the source. The rule behind the calls is not given here.
Experiments:
MCF-10A = test: Cytotoxicity against human MCF-10A cells assessed as cell viability incubated for 72 hrs by MTT assay; assay type: functional, cell-based
[1] = tested on: Panel NCI-60 (60 carcinoma cell lines); test: Anticancer activity against human NCI-60 cells assessed as cell growth inhibition incubated for 72 hrs by MTT assay; assay type: functional
HepG2 [2] = test: Cytotoxicity against human HepG2 cells assessed as cell viability incubated for 72 hrs by MTT assay; assay type: functional, cell-based
MCF7 = test: Cytotoxicity against human MCF7 cells assessed as cell viability incubated for 72 hrs by MTT assay; assay type: functional, cell-based
HepG2 [3] = test: Induction of cell cycle arrest in human HepG2 cells assessed as decrease in cyclin-B1 expression at 1.5 uM measured after 8 to 24 hrs by Western blotting analysis relative to control; assay type: functional; design: scale not given: the % may be the effect or the level left; conditions: time 8-24 hrs
HepG2 [4] = test: Induction of cell cycle arrest in human HepG2 cells assessed as decrease in cyclin-B1 expression at 1.5 uM measured after 72 hrs by Western blotting analysis relative to control; assay type: functional; design: scale not given: the % may be the effect or the level left
HepG2 [5] = test: Inhibition of cell migration in human HepG2 cells assessed as reduction in wound closure at 1.5 uM measured after 24 to 48 hrs by wound healing assay based contrat-phase microscopic analysis; assay type: functional; conditions: time 24-48 hrs
HepG2 [6] = test: Inhibition of cell invasion in human HepG2 cells assessed as reduction in MMP-9 level at 2.5 uM after 8 hrs by densitometric analysis; assay type: functional; design: scale not given: the % may be the effect or the level left
HepG2 [7] = test: Inhibition of cell invasion in human HepG2 cells assessed as reduction in MMP-9 level at 2.5 uM after 72 hrs by densitometric analysis; assay type: functional; design: scale not given: the % may be the effect or the level left
HepG2 [8] = test: Inhibition of cell invasion in human HepG2 cells assessed as reduction in MMP-2 level at 2.5 uM after 8 hrs by densitometric analysis; assay type: functional; design: scale not given: the % may be the effect or the level left
HepG2 [9] = test: Inhibition of cell invasion in human HepG2 cells assessed as reduction in MMP-2 level at 2.5 uM after 72 hrs by densitometric analysis; assay type: functional; design: scale not given: the % may be the effect or the level left
HepG2 [10] = test: Anticlonogenic activity against human HepG2 cells assessed as reduction of colony formation at 0.5 uM incubated for 14 days by crystal violet staining method; assay type: functional; design: scale not given: the % may be the effect or the level left; conditions: time 14 day
HepG2 [11] = test: Cytotoxicity against human HepG2 cells assessed as cell viability incubated for 72 hrs in presence of alpha-ketoglutarate by MTT assay; assay type: functional, cell-based; conditions: HepG2, 72 h
[12] = Cytotoxicity against human U-87 MG cells overexpressing GLS-1; assay type: functional, cell-based, U-87MG ATCC
MIA PaCa-2 = test: Cytotoxicity against human MIA PaCa-2 cells overexpressing GLS-1; assay type: functional, cell-based
SAOS-2 = test: Cytotoxicity against human SAOS-2 cells overexpressing GLS-1; assay type: functional, cell-based
A-375 = test: Cytotoxicity against human A-375 cells overexpressing GLS-1; assay type: functional, cell-based
A549 = test: Cytotoxicity against human A549 cells overexpressing GLS-1; assay type: functional, cell-based
[13] = target: T1, Glutaminase kidney isoform, mitochondrial (Homo sapiens, UniProt O94925); test: Inhibition of human recombinant GLS-1 by measuring glutamate production incubated for 1 hr by fluorescence based multimode plate reader method
T1 sequence (O94925 whole entry): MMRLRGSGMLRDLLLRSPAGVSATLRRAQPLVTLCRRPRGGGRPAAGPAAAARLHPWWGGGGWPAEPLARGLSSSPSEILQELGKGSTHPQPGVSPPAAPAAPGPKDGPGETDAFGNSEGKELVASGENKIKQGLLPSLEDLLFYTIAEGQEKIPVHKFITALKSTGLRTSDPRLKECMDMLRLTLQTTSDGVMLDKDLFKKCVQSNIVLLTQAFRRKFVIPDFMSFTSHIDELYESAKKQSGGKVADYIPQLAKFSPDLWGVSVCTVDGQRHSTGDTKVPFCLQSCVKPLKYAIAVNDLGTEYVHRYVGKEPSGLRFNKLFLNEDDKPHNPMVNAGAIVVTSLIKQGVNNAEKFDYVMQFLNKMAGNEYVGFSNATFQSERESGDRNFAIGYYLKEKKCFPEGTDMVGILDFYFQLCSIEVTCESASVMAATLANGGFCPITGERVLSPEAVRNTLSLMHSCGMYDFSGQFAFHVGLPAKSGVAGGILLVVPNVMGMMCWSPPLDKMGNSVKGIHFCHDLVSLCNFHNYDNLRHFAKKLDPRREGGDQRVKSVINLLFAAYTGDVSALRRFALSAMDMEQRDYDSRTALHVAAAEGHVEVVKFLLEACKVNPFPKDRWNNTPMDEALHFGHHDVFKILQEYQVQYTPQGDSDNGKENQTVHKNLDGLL

[14] = target: T2, Glutaminase liver isoform, mitochondrial (Homo sapiens, UniProt Q9UI32); test: Inhibition of human recombinant GLS-2 by measuring glutamate production incubated for 1 hr by fluorescence based multimode plate reader method
T2 sequence (Q9UI32 whole entry): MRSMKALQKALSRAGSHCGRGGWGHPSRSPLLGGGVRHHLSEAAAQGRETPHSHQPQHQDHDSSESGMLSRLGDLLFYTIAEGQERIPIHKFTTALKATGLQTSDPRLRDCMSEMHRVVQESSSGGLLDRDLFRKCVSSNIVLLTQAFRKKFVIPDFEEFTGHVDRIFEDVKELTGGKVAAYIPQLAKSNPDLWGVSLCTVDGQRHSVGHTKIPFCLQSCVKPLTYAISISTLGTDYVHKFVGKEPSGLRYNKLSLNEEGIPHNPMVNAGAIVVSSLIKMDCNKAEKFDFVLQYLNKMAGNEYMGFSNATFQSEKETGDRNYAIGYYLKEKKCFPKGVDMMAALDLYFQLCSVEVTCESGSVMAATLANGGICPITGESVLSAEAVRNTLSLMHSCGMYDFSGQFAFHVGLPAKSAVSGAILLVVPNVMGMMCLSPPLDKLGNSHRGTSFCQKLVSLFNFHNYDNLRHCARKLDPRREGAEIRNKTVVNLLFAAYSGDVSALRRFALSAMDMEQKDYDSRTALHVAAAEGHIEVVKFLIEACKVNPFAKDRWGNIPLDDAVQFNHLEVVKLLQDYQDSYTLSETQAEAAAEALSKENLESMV

HepG2 [15] = test: Downregulation of spermidine level in human HepG2 cells; assay type: functional, cell-based
HepG2 [16] = test: Upregulation of stearoyl-carnitine level in human HepG2 cells; assay type: functional, cell-based
HepG2 [17] = test: Downregulation of GSH level in human HepG2 cells; assay type: functional, cell-based
HepG2 [18] = test: Downregulation of c-Myc level in human HepG2 cells; assay type: functional, cell-based
HepG2 [19] = test: Downregulation of polyamine pathway in human HepG2 cells assessed as increase in intracellular ROS production; assay type: functional, cell-based

## Fc1ccc2c(c1)c(-c1nc(-c3c[nH]c4ncccc34)cs1)cn2CCCN1CCOCC1
MCF-10A
  Activity: Active

## COc1ccc2c(c1)c(-c1nc(-c3c[nH]c4ncccc34)cs1)cn2CCCCN1CCOCC1
[1]; read-out: GI50
  GI50: 220 nM
[1]; read-out: pGI50 (converted)
  GI50: 5250 nM

## COc1ccc2c(c1)c(-c1nc(-c3cn(C)c4ncccc34)cs1)cn2CCCCN1CCOCC1
[1]; read-out: GI50
  GI50: 20 nM
[1]; read-out: pGI50 (converted)
  GI50: 12000 nM
MCF-10A
  Activity: Active

## COc1ccc2c(c1)c(-c1nc(-c3c[nH]c4ncccc34)cs1)cn2CCCN1CCOCC1
[1]; read-out: GI50
  GI50: 480 nM
[1]; read-out: pGI50 (converted)
  GI50: 4070 nM
HepG2 [2]
  Activity: Active
MCF7
  Activity: Active

## Cn1cc(-c2csc(-c3cn(CCO)c4ccc(Br)cc34)n2)c2cccnc21
HepG2 [2]
  Activity: Active
MCF7
  Activity: Active

## Cn1cc(-c2csc(-c3cn(CCO)c4ccccc34)n2)c2cccnc21
HepG2 [2]
  Activity: Active
MCF7
  Activity: Active

## Cn1cc(-c2csc(-c3cn(CCCCN4CCCCC4)c4ccc(F)cc34)n2)c2cccnc21
[1]; read-out: GI50
  GI50: 1460 nM
[1]; read-out: pGI50 (converted)
  GI50: 16200 nM

## Cn1cc(-c2csc(-c3cn(CCCCN4CCOCC4)c4ccc(F)cc34)n2)c2cccnc21
MCF-10A
  Activity: Active

## c1cnc2[nH]cc(-c3csc(-c4cn(CCCN5CCCCC5)c5ccccc45)n3)c2c1
[1]; read-out: GI50
  GI50: 1100 nM
[1]; read-out: pGI50 (converted)
  GI50: 2340 nM
MCF7
  Activity: Active
MCF-10A
  Activity: Active

## COc1ccc2c(c1)c(-c1nc(-c3cn(C)c4ncccc34)cs1)cn2CCCCN1CCCCC1
[1]; read-out: GI50
  GI50: 1070 nM
[1]; read-out: pGI50 (converted)
  GI50: 1910 nM
HepG2 [2]
  Activity: Active
MCF7
  Activity: Active

## COc1ccc2c(c1)c(-c1nc(-c3c[nH]c4ncccc34)cs1)cn2CCCN1CCCCC1
[1]; read-out: GI50
  GI50: 1190 nM
[1]; read-out: pGI50 (converted)
  GI50: 3310 nM
MCF7
  Activity: Active
MCF-10A
  Activity: Active

## Cn1cc(-c2csc(-c3cn(CCCCN4CCOCC4)c4ccccc34)n2)c2cccnc21
MCF-10A
  Activity: Active

## Br.Fc1ccc2c(c1)c(-c1nc(-c3c[nH]c4ncccc34)cs1)cn2CCCCN1CCOCC1
HepG2 [2]; HepG2, 72 h
  EC50: 3.25 µM
MCF7; MCF7, 72 h
  EC50: 23.1 µM
MCF-10A
  EC50: 29.1 µM
HepG2 [3]
  Activity: 50%
HepG2 [4]
  Activity: 75%
HepG2 [5]
  Activity: Active
HepG2 [6]
  Activity: 50%
HepG2 [7]
  Activity: 75%
HepG2 [8]
  Activity: 20%
HepG2 [9]
  Activity: 80%
HepG2 [10]
  Activity: <=70%
HepG2 [11]
  EC50: 27.2 µM
[12]
  EC50: 3.63 µM
MIA PaCa-2
  EC50: 6.98 µM
SAOS-2
  EC50: 4.85 µM
A-375
  EC50: 5.84 µM
A549
  EC50: 8.47 µM
[13]
  EC50: 3.96 µM
[14]
  EC50: 12.9 µM
HepG2 [15]
  Activity: Active
HepG2 [16]
  Activity: Active
HepG2 [17]
  Activity: Active
HepG2 [18]
  Activity: Active
HepG2 [19]
  Activity: Active

## Cn1cc(-c2csc(-c3cn(CCN4CCOCC4)c4ccc(F)cc34)n2)c2cccnc21
[1]; read-out: GI50
  GI50: 1520 nM
[1]; read-out: pGI50 (converted)
  GI50: 5620 nM
HepG2 [2]
  Activity: Active
MCF7
  Activity: Active

## Fc1ccc2c(c1)c(-c1nc(-c3c[nH]c4ncccc34)cs1)cn2CCCN1CCCCC1
[1]; read-out: GI50
  GI50: 1280 nM
[1]; read-out: pGI50 (converted)
  GI50: 3720 nM
MCF7
  Activity: Active
MCF-10A
  Activity: Active

## COc1ccc2c(c1)c(-c1nc(-c3c[nH]c4ncccc34)cs1)cn2CCCCN1CCCCC1
[1]; read-out: GI50
  GI50: 1180 nM
[1]; read-out: pGI50 (converted)
  GI50: 1950 nM

## COc1ccc2c(c1)c(-c1nc(-c3c[nH]c4ncccc34)cs1)cn2CCN1CCCCC1
HepG2 [2]
  Activity: Active
MCF7
  Activity: Active

## COc1ccc2c(c1)c(-c1nc(-c3c[nH]c4ncccc34)cs1)cn2CCO
HepG2 [2]
  Activity: Active
MCF7
  Activity: Active

## OCCn1cc(-c2nc(-c3c[nH]c4ncccc34)cs2)c2cc(Br)ccc21
HepG2 [2]
  Activity: Active
MCF7
  Activity: Active

## c1cnc2[nH]cc(-c3csc(-c4cn(CCCCN5CCCCC5)c5ccccc45)n3)c2c1
HepG2 [2]
  Activity: Active
MCF7
  Activity: Active

## COc1ccc2c(c1)c(-c1nc(-c3cn(C)c4ncccc34)cs1)cn2CCN1CCCCC1
MCF7
  Activity: Active
MCF-10A
  Activity: Active

From ChEMBL document CHEMBL5120786, “Metabolomics-assisted discovery of a new anticancer GLS-1 inhibitor chemotype from a nortopsentin-inspired library: From phenotype screening to target identification” (Eur J Med Chem, 2022)
